Inhibition data for seven compounds are collected here from ChEMBL document CHEMBL1127844, “Molecular structures and conformational studies of triarylcyclopropyl and related nonsteroidal antiestrogens” (J Med Chem, 1994).

The test system of the assay is MCF7. As to the kind of experiment: Percent inhibition of estrogen receptor positive MCF-7 human breast cancer cell proliferation at 10e-7 M. The assay is classed as functional.

Structures are written as SMILES.

`COc1ccc(C2(c3ccccc3)C(c3ccccc3)C2(Cl)Cl)cc1` (configuration not stated) came in with an inhibition at 0.1 µM of 35%.
In the case of `COc1ccc(C2C(Cl)(Cl)C2(c2ccc(OC)cc2)c2ccc(OCc3ccccc3)cc2)cc1` (configuration not stated) it was 35%.
In the case of `COc1ccc(C2(c3ccc(OCCN(C)C)cc3)C(c3ccccc3)C2(Cl)Cl)cc1` (configuration not stated) it was 35%; in that of `ClC1(Cl)C(c2ccccc2)C1c1ccccc1` (configuration not stated), 60%; in that of `CN(C)CCOc1ccc(C2(c3ccccc3)C(c3ccccc3)C2(Cl)Cl)cc1` (configuration not stated), 41%.
In the case of `COc1ccc(C2(c3ccc(OCc4ccccc4)cc3)C(c3ccccc3)C2(Cl)Cl)cc1` (configuration not stated) it was 46%; in that of `CC/C(=C(\c1ccccc1)c1ccc(OCCN(C)C)cc1)c1ccccc1` [TAMOXIFEN], 52%.
